Numbered stars: 1 amine (or outer) side, 2 acyl side, 3 side chain; on linkers, the order of the positions; unused ones are H or OH. Square brackets hold non-standard residues; d marks the D form. Side chains are listed from the residue outwards. Peptide text beside a SMILES is read from it. * marks the point of attachment. γGlu = O=C(O)[C@H](CCC(=O)[*:2])N[*:1]; Palmitoyl = CCCCCCCCCCCCCCCC(=O)*; Aib = CC(C)(N)C(=O)O
How the values were obtained:
[1] = Solubility assessment in solubility buffer system A; type: physicochemical; conditions: acetate buffer pH 4.5 with m-cresol; acetate buffer pH 4.5, 2.7 mg/ml m-cresol, target 10 mg/ml
Procedure: Prior to the solubility measurement of a peptide batch, its purity was determined through UPLC/MS.
Therefore solutions from solid samples were prepared in a buffer system with a concentration of 10 mg/mL compound based on the previously determined % purity:
Solubility buffer system A) Acetate Buffer pH 4.5, 100 mM sodium acetate trihydrate, 2.7 mg/ml m-Cresol
UPLC-UV was performed after 1 hour of gentle agitation from the supernatant, which was obtained after 15 min of centrifugation at 2500 RCF (relative centrifugal acceleration).
The solubility was determined by the comparison of the UV peak area of 2 μL-injection of a buffered sample diluted 1:10 with a standard curve of a reference peptide with known concentration. The different UV extinction coefficients of sample and reference peptide were calculated based on the different amino acid sequences and considered in the concentration calculation.
Peptide samples were prepared in solubility buffer system A and solubility was assessed as described in Methods.

[2] = Dynamic light scattering, hydrodynamic radius as surrogate for DLS interaction parameter kD; type: physicochemical; conditions: for Delta Rh [nm] = Rh5 − Rh1: DLS buffer system A pH 4.5; for Rh1 [nm] c = 1 mg/ml / Rh5 [nm] c = 5 mg/ml: hydrodynamic radius, DLS buffer system A pH 4.5, method C, 25° C.
From the text: A monochromatic and coherent light beam (laser) is used to illuminate the liquid sample. Dynamic Light Scattering (DLS) measures light scattered from particles (1 nm≤radius≤1 μm) that undergo Brownian motion. This motion is induced by collisions between the particles and solvent molecules that themselves are moving due to their thermal energy. The diffusional motion of the particles results in temporal fluctuations of the scattered light [Pecora, R. Dynamic Light Scattering: Applications of Photon Correlation Spectroscopy, Plenum Press, 1985].
The scattered light intensity fluctuations are recorded and transformed into an autocorrelation function. By fitting the autocorrelation curve to an exponential function, the diffusion coefficient D of the particles in solution can be derived. The diffusion coefficient is then used to calculate the hydrodynamic radius Rh (or apparent Stokes radius) through the Stokes-Einstein equation assuming spherical particles. This calculation is defined in ISO 13321 and ISO 22412 [International Standard ISO13321 Methods for Determination of Particle Size Distribution Part 8: Photon Correlation Spectroscopy, International Organisation for Standardisation (ISO) 1996; International Standard ISO22412 Particle Size Analysis—Dynamic Light Scattering, International Organisation for Standardisation (ISO) 2008].
For every peptide solution, the hydrodynamic radius Rh and the diffusion constant D (related via the Stokes-Einstein equation) were determined as an average over triplicates. Both parameters were determined at different peptide concentrations (e.g., Rh1 and D1: 1 mg/ml and Rh5 and D5: 5 mg/ml) in the same buffer system. The difference of these parameters between low and high peptide concentration is a surrogate for the DLS interaction parameter kD. Rh5<Rh1 or D5>D1 correspond to kD>0 and therefore to repulsive inter-particle interactions that result in improved physical (or colloidal) stability.
DLS buffer system A) 25 mM acetate buffer pH 4.5, 3 mg/mL L-Methionine, 2.7 mg/mL m-cresol, 18 mg/mL Glycerol 85%
DLS Method C: DLS measurements were performed on a DynaPro Plate Reader II (Wyatt Technology, Santa Barbara, Calif., US) and using one of the following black, low volume, and non-treated plates: polystyrene 384 assay plate with clear bottom (Corning, N.Y., US), polystyrene 96 assay plate with clear bottom (Corning, N.Y., US), cyclo olefin polymer (COP) 384 assay plate with clear bottom (Aurora, Mont., US), or polystyrene 384 assay plate with clear bottom (Greiner Bio-One, Germany). The data were processed with the Dynamics software provided by Wyatt Technology. Parameters of the particle size distribution were determined with non-negatively constrained least squares (NNLS) methods using DynaLS algorithms. Measurements were taken at 25° C. with an 830 nm laser light source at an angle of 158°.
The hydrodynamic radius Rh of peptide samples was determined at different peptide concentrations (1 mg/ml and 5 mg/ml) in DLS buffer system A using DLS method C as described in Methods as surrogate for the DLS interaction parameter kD.

[3] = biological target: T1, human glucagon receptor (Homo sapiens, UniProt P47871); assay: cAMP response (HTRF) of HEK-293 cells stably expressing human glucagon receptor; type: cell-based; conditions: Table 8; read-out: EC50 hGlucagon R
T1 construct: expressed in transfected cells; host or cells: HEK-293
Procedure: cAMP content of cells was determined using a kit from Cisbio Corp. (cat. no. 62AM4PEJ) based on HTRF (Homogenous Time Resolved Fluorescence). For preparation, cells were split into T175 culture flasks and grown overnight to near confluency in medium (DMEM/10% FBS). Medium was then removed and cells washed with PBS lacking calcium and magnesium, followed by proteinase treatment with accutase (Sigma-Aldrich cat. no. A6964). Detached cells were washed and resuspended in assay buffer (1×HBSS; 20 mM HEPES, 0.1% BSA, 2 mM IBMX) and cellular density determined. They were then diluted to 400000 cells/ml and 25 μl-aliquots dispensed into the wells of 96-well plates. For measurement, 25 μl of test compound in assay buffer was added to the wells, followed by incubation for 30 minutes at room temperature.
Potencies of peptidic compounds at the GLP-1, glucagon and GIP receptors were determined by exposing cells expressing human glucagon receptor (hGlucagon R), human GIP receptor (hGIP-R) or human GLP-1 receptor (hGLP-1 R) to the listed compounds at increasing concentrations and measuring the formed cAMP as described in Methods.

T1 sequence (P47871 26-477): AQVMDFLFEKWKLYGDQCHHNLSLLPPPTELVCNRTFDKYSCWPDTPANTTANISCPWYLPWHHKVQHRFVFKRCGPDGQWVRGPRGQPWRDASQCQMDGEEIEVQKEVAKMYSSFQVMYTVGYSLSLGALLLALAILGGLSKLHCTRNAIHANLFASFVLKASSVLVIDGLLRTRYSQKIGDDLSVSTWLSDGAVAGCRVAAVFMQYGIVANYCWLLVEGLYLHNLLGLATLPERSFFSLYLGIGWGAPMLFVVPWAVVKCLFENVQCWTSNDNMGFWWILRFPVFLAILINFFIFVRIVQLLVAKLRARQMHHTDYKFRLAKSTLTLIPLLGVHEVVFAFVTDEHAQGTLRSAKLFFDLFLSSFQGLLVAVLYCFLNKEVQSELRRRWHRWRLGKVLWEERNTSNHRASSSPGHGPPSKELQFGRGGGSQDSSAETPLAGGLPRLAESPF

SMILES	solubility at 1 h [1] [µg/mL]	Delta Rh [nm] = Rh5 − Rh1 [2] [nm]	Rh1 [nm] c = 1 mg/ml [2] [nm]	Rh5 [nm] c = 5 mg/ml [2] [nm]	EC50 [3] [pM]
CCCCCCCCCCCCCCCC(=O)N[C@@H](CCC(=O)N[C@@H](CCC(=O)NCCCC[C@H](NC(=O)[C@H](CC(C)C)NC(=O)[C@H](CCCCN)NC(=O)[C@H](CO)NC(=O)[C@H](CC(C)C)NC(=O)[C@H](CC(=O)O)NC(=O)[C@H](CO)NC(=O)[C@@H](NC(=O)[C@H](Cc1ccccc1)NC(=O)[C@@H](NC(=O)CNC(=O)[C@H](Cc1c[nH]cn1)NC(=O)C(C)(C)NC(=O)[C@@H](N)Cc1c[nH]cn1)[C@@H](C)O)[C@@H](C)O)C(=O)N[C@@H](CCC(=O)O)C(=O)N[C@@H](CCC(=O)O)C(=O)N[C@@H](CCC(N)=O)C(=O)N[C@@H](CCCNC(=N)N)C(=O)N[C@@H](CCC(N)=O)C(=O)N[C@@H](CCCCN)C(=O)N[C@@H](CCC(=O)O)C(=O)N[C@@H](Cc1ccccc1)C(=O)N[C@H](C(=O)N[C@@H](CCC(=O)O)C(=O)N[C@@H](Cc1c[nH]c2ccccc12)C(=O)N[C@@H](CC(C)C)C(=O)N[C@@H](CCCCN)C(=O)N[C@@H](C)C(=O)NCC(=O)NCC(=O)N[C@@H](Cc1c[nH]cn1)C(=O)N1CCC[C@H]1C(=O)N[C@@H](CO)C(=O)NC(C)(C)C(=O)N[C@@H](CCCCN)C(=O)N1CCC[C@H]1C(=O)N1CCC[C@H]1C(=O)N1CCC[C@H]1C(=O)N[C@@H](CCCCN)C(N)=O)[C@@H](C)CC)C(=O)O)C(=O)O [SEQ ID NO: 6, H-Aib-H-G-T-F-T-S-D-L-S-K-L-K[gGlu-gGlu-Palm]-E-E-Q-R-Q-K-E-F-I-E-W-L-K-A-G-G-H-P-S-Aib-K-P-P-P-K-NH2]	> 9700	−0.9	2.5	1.7	
CCCCCCCCCCCCCCCC(=O)N[C@@H](CCC(=O)N[C@@H](CCC(=O)NCCCC[C@H](NC(=O)[C@H](CC(C)C)NC(=O)[C@H](CCCCN)NC(=O)[C@H](CO)NC(=O)[C@H](CC(C)C)NC(=O)[C@H](CC(=O)O)NC(=O)[C@H](CO)NC(=O)[C@@H](NC(=O)[C@H](Cc1ccccc1)NC(=O)[C@@H](NC(=O)CNC(=O)[C@H](Cc1c[nH]cn1)NC(=O)C(C)(C)NC(=O)[C@@H](N)Cc1c[nH]cn1)[C@@H](C)O)[C@@H](C)O)C(=O)N[C@@H](CCC(=O)O)C(=O)N[C@@H](CCC(=O)O)C(=O)N[C@@H](CCC(N)=O)C(=O)N[C@@H](CCCNC(=N)N)C(=O)N[C@@H](CCC(N)=O)C(=O)N[C@@H](CCCCN)C(=O)N[C@@H](CCC(=O)O)C(=O)N[C@@H](Cc1ccccc1)C(=O)N[C@H](C(=O)N[C@@H](CCC(=O)O)C(=O)N[C@@H](Cc1c[nH]c2ccccc12)C(=O)N[C@@H](CC(C)C)C(=O)N[C@@H](CCCCN)C(=O)N[C@@H](C)C(=O)N[C@H](C)C(=O)NCC(=O)N1CCC[C@H]1C(=O)N1CCC[C@H]1C(=O)N[C@@H](CO)C(=O)NC(C)(C)C(=O)N[C@@H](CCCCN)C(=O)N1CCC[C@H]1C(=O)N1CCC[C@H]1C(=O)N1CCC[C@H]1C(=O)N[C@@H](CCCCN)C(N)=O)[C@@H](C)CC)C(=O)O)C(=O)O [SEQ ID NO: 9, H-Aib-H-G-T-F-T-S-D-L-S-K-L-K[gGlu-gGlu-Palm]-E-E-Q-R-Q-K-E-F-I-E-W-L-K-A-dAla-G-P-P-S-Aib-K-P-P-P-K-NH2] (H-H[Aib]HGTFTSDLSKLK([γGlu-γGlu-Palmitoyl])EEQRQKEFIEWLKA[dA]GPPS[Aib]KPPPK-NH2)	> 9300	−0.2	2.8	2.6	
CCCCCCCCCCCCCCCC(=O)N[C@@H](CCC(=O)N[C@@H](CCC(=O)NCCCC[C@H](NC(=O)[C@H](CC(C)C)NC(=O)[C@H](CCCCN)NC(=O)[C@H](CO)NC(=O)[C@H](CC(C)C)NC(=O)[C@H](CC(=O)O)NC(=O)[C@H](CO)NC(=O)[C@@H](NC(=O)[C@H](Cc1ccccc1)NC(=O)[C@@H](NC(=O)CNC(=O)[C@H](Cc1c[nH]cn1)NC(=O)C(C)(C)NC(=O)[C@@H](N)Cc1c[nH]cn1)[C@@H](C)O)[C@@H](C)O)C(=O)N[C@@H](CCC(=O)O)C(=O)N[C@@H](CCC(=O)O)C(=O)N[C@@H](CCC(N)=O)C(=O)N[C@@H](CCCNC(=N)N)C(=O)N[C@@H](CCC(N)=O)C(=O)NC(C)(C)C(=O)N[C@@H](CCC(=O)O)C(=O)N[C@@H](Cc1ccccc1)C(=O)N[C@H](C(=O)N[C@@H](CCC(=O)O)C(=O)N[C@@H](Cc1c[nH]c2ccccc12)C(=O)N[C@@H](CC(C)C)C(=O)N[C@@H](CCCCN)C(=O)N[C@@H](C)C(=O)NCC(=O)NCC(=O)N[C@@H](Cc1c[nH]cn1)C(=O)N1CCC[C@H]1C(=O)N[C@@H](CO)C(=O)NC(C)(C)C(=O)N[C@@H](CCCCN)C(=O)N1CCC[C@H]1C(=O)N1CCC[C@H]1C(=O)N1CCC[C@H]1C(=O)N[C@@H](CCCCN)C(N)=O)[C@@H](C)CC)C(=O)O)C(=O)O [SEQ ID NO: 12, H-Aib-H-G-T-F-T-S-D-L-S-K-L-K[gGlu-gGlu-Palm]-E-E-Q-R-Q-Aib-E-F-I-E-W-L-K-A-G-G-H-P-S-Aib-K-P-P-P-K-NH2]		−0.3	2.9	2.6	2
CCCCCCCCCCCCCCCC(=O)N[C@@H](CCC(=O)N[C@@H](CCC(=O)NCCCC[C@H](NC(=O)[C@H](CC(C)C)NC(=O)[C@H](CCCCN)NC(=O)[C@H](CO)NC(=O)[C@H](CC(C)C)NC(=O)[C@H](CC(=O)O)NC(=O)[C@H](CO)NC(=O)[C@@H](NC(=O)[C@H](Cc1ccccc1)NC(=O)[C@@H](NC(=O)CNC(=O)[C@H](Cc1c[nH]cn1)NC(=O)C(C)(C)NC(=O)[C@@H](N)Cc1c[nH]cn1)[C@@H](C)O)[C@@H](C)O)C(=O)N[C@@H](CCC(=O)O)C(=O)N[C@@H](CCC(=O)O)C(=O)N[C@@H](CCC(N)=O)C(=O)N[C@@H](CCCNC(=N)N)C(=O)N[C@@H](CCC(N)=O)C(=O)NC(C)(C)C(=O)N[C@@H](CCC(=O)O)C(=O)N[C@@H](Cc1ccccc1)C(=O)N[C@H](C(=O)N[C@@H](CCC(=O)O)C(=O)N[C@@H](Cc1c[nH]c2ccccc12)C(=O)N[C@@H](CC(C)C)C(=O)N[C@@H](CCCCN)C(=O)N[C@@H](C)C(=O)N[C@H](C)C(=O)NCC(=O)N[C@@H](Cc1c[nH]cn1)C(=O)N1CCC[C@H]1C(=O)N[C@@H](CO)C(=O)NC(C)(C)C(=O)N[C@@H](CCCCN)C(=O)N1CCC[C@H]1C(=O)N1CCC[C@H]1C(=O)N1CCC[C@H]1C(=O)N[C@@H](CCCCN)C(N)=O)[C@@H](C)CC)C(=O)O)C(=O)O [SEQ ID NO: 13, H-Aib-H-G-T-F-T-S-D-L-S-K-L-K[gGlu-gGlu-Palm]-E-E-Q-R-Q-Aib-E-F-I-E-W-L-K-A-dAla-G-H-P-S-Aib-K-P-P-P-K-NH2] (H-H[Aib]HGTFTSDLSKLK([γGlu-γGlu-Palmitoyl])EEQRQ[Aib]EFIEWLKA[dA]GHPS[Aib]KPPPK-NH2)		−0.3	2.8	2.5	2.1

— patent publication US10538567B2, “Compounds as peptidic trigonal GLP1/glucagon/GIP receptor agonists” (priority 2016, dated 2020)
